From ChEMBL document CHEMBL1201862, “PubChem BioAssay data set” (2004)
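Compound exposure: 48 hours, 5 concentrations, 96-well plates. GI50 marks 50% less growth.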 Activity calls are given as the source filed them. Rule as the data show it: active = GI50 up to about 1.1 µM and inactive = higher. Peptide text beside a SMILES is read from it.

Key:
Assay in all cases: growth of human tumour cells (NCI), 48 h
A498 = tested on: A498
CAKI-1 = tested on: CAKI-1
IGROV-1 = tested on: IGROV-1
K562 = tested on: K562
LOX IMVI = tested on: LOX IMVI
M14 = tested on: M14
MCF7 = tested on: MCF7
MDA-MB-231 = tested on: MDA-MB-231
MOLT-4 = tested on: MOLT-4
NCI-H460 = tested on: NCI-H460
OVCAR-3 = tested on: OVCAR-3
PC-3 = tested on: PC-3
RPMI-8226 = tested on: RPMI-8226
SK-MEL-28 = tested on: SK-MEL-28
SNB-19 = tested on: SNB-19
SR = tested on: SR
TK-10 = tested on: TK-10
UO-31 = tested on: UO-31
CCRF-CEM = tested on: CCRF-CEM
SF-295 = tested on: SF-295

SMILES	GI50 (A498)	GI50 (CAKI-1)	GI50 (IGROV-1)	GI50 (K562)	GI50 (LOX IMVI)	GI50 (M14)	GI50 (MCF7)	GI50 (MDA-MB-231)	GI50 (MOLT-4)	GI50 (NCI-H460)	GI50 (OVCAR-3)	GI50 (PC-3)	GI50 (RPMI-8226)	GI50 (SK-MEL-28)	GI50 (SNB-19)	GI50 (SR)	GI50 (TK-10)	GI50 (UO-31)	GI50 (CCRF-CEM)	GI50 (SF-295)
S=c1nc2[nH]c3ccc(Br)cc3c2n[nH]1	> 100 µM (inactive)	69.8 µM (inactive)	19.3 µM (inactive)	47.8 µM (inactive)	30.1 µM (inactive)	51.5 µM (inactive)	19 µM (inactive)	49.9 µM (inactive)	30.3 µM (inactive)	63.1 µM (inactive)	41 µM (inactive)	43.1 µM (inactive)	37.1 µM (inactive)	> 100 µM (inactive)	> 100 µM (inactive)	19 µM (inactive)	> 100 µM (inactive)	72.8 µM (inactive)	–	–
CC(=O)OCC1=C(C(=O)O)N2C(=O)C(NC(=O)CSc3ccncc3)C2SC1 (stereo not drawn)	> 100 µM (inactive)	> 100 µM (inactive)	> 100 µM (inactive)	> 100 µM (inactive)	> 100 µM (inactive)	> 100 µM (inactive)	> 100 µM (inactive)	> 100 µM (inactive)	> 100 µM (inactive)	> 100 µM (inactive)	> 100 µM (inactive)	> 100 µM (inactive)	> 100 µM (inactive)	> 100 µM (inactive)	> 100 µM (inactive)	> 100 µM (inactive)	–	> 100 µM (inactive)	> 100 µM (inactive)	> 100 µM (inactive)
NC(=O)CCC(NC(=O)c1cccc2c(=O)c3ccccc3[nH]c12)C(=O)O (stereo not drawn)	> 100 µM (inactive)	–	> 100 µM (inactive)	> 100 µM (inactive)	> 100 µM (inactive)	> 100 µM (inactive)	> 100 µM (inactive)	> 100 µM (inactive)	> 100 µM (inactive)	–	> 100 µM (inactive)	> 100 µM (inactive)	> 100 µM (inactive)	> 100 µM (inactive)	> 100 µM (inactive)	> 100 µM (inactive)	> 100 µM (inactive)	> 100 µM (inactive)	–	> 100 µM (inactive)
O/N=C(\CC(O)(C(F)(F)F)C(F)(F)F)c1cccc(Cl)c1	34 µM (inactive)	21.5 µM (inactive)	27.1 µM (inactive)	30.2 µM (inactive)	23 µM (inactive)	22.8 µM (inactive)	35 µM (inactive)	22.5 µM (inactive)	15.5 µM (inactive)	43.3 µM (inactive)	19.8 µM (inactive)	29.9 µM (inactive)	29.9 µM (inactive)	41.1 µM (inactive)	–	45.3 µM (inactive)	22.3 µM (inactive)	–	19.8 µM (inactive)	38.7 µM (inactive)
CC(C)C(C/C=C1\CC(CO)(COC(=O)C(C)(C)C)OC1=O)C(C)C (stereo not drawn)	14.1 µM (inactive)	8.73 µM (inactive)	14.3 µM (inactive)	0.942 µM (active)	2.88 µM (inactive)	13.9 µM (inactive)	20.7 µM (inactive)	5.24 µM (inactive)	0.581 µM (active)	5.57 µM (inactive)	12.6 µM (inactive)	5.05 µM (inactive)	–	13.2 µM (inactive)	13 µM (inactive)	11.5 µM (inactive)	7.23 µM (inactive)	5.09 µM (inactive)	10.6 µM (inactive)	4.06 µM (inactive)
CCOC(=S)SSSC(=S)OCC	> 100 µM (inactive)	29.9 µM (inactive)	–	26.3 µM (inactive)	25.1 µM (inactive)	27 µM (inactive)	28.2 µM (inactive)	33.1 µM (inactive)	27.9 µM (inactive)	30.7 µM (inactive)	26.4 µM (inactive)	> 100 µM (inactive)	24 µM (inactive)	> 100 µM (inactive)	65 µM (inactive)	13.5 µM (inactive)	> 100 µM (inactive)	–	30.5 µM (inactive)	51.5 µM (inactive)
CC(=O)Oc1cc2c(c3ncccc13)OC(C)(C)C2	16.9 µM (inactive)	7.4 µM (inactive)	2.29 µM (inactive)	6.19 µM (inactive)	–	12.8 µM (inactive)	16.7 µM (inactive)	10.1 µM (inactive)	12.3 µM (inactive)	8.71 µM (inactive)	11.5 µM (inactive)	20.7 µM (inactive)	20.3 µM (inactive)	15.2 µM (inactive)	–	1.54 µM (inactive)	12.8 µM (inactive)	> 100 µM (inactive)	10.5 µM (inactive)	13 µM (inactive)
C[C@H]1C(=O)O[C@@H]1[C@H]1COC(C)(C)O1	> 100 µM (inactive)	> 100 µM (inactive)	–	–	–	> 100 µM (inactive)	> 100 µM (inactive)	> 100 µM (inactive)	> 100 µM (inactive)	> 100 µM (inactive)	> 100 µM (inactive)	> 100 µM (inactive)	> 100 µM (inactive)	> 100 µM (inactive)	> 100 µM (inactive)	> 100 µM (inactive)	> 100 µM (inactive)	> 100 µM (inactive)	32.5 µM (inactive)	> 100 µM (inactive)
CCC(C)C(NC(=O)C(NC(=O)C(CC(N)=O)NC(=O)CN)C(C)O)C(=O)NC(C(=O)NC(C)C(=O)NC(C(=O)NC(CCC(=O)O)C(=O)NC(CC(C)C)C(=O)NC(CC(=O)O)C(=O)NC(C(=O)NC(Cc1ccc(O)cc1)C(=O)N1CCCC1C(=O)O)C(C)O)C(C)C)C(C)C (stereo not drawn) (H-GNTIVAVELDTYP-OH; configuration not given here)	–	> 50 µM (inactive)	> 50 µM (inactive)	> 50 µM (inactive)	> 50 µM (inactive)	> 50 µM (inactive)	> 50 µM (inactive)	18.9 µM (inactive)	> 50 µM (inactive)	> 50 µM (inactive)	> 50 µM (inactive)	> 50 µM (inactive)	> 50 µM (inactive)	> 50 µM (inactive)	> 50 µM (inactive)	> 50 µM (inactive)	> 50 µM (inactive)	> 50 µM (inactive)	> 50 µM (inactive)	> 50 µM (inactive)
CC(C)(C)OC(=O)NCC(=O)NC1C/C(=N\O)c2sccc21 (stereo not drawn)	> 100 µM (inactive)	> 100 µM (inactive)	> 100 µM (inactive)	> 100 µM (inactive)	> 100 µM (inactive)	> 100 µM (inactive)	> 100 µM (inactive)	> 100 µM (inactive)	0.621 µM (active)	> 100 µM (inactive)	> 100 µM (inactive)	> 100 µM (inactive)	–	> 100 µM (inactive)	> 100 µM (inactive)	> 100 µM (inactive)	> 100 µM (inactive)	> 100 µM (inactive)	> 100 µM (inactive)	> 100 µM (inactive)
O=C(CNc1ccccc1C(=O)O)Nn1cnc2ccc(S(=O)(=O)Nc3ccccc3C(=O)O)cc2c1=O	–	> 100 µM (inactive)	> 100 µM (inactive)	> 100 µM (inactive)	> 100 µM (inactive)	> 100 µM (inactive)	> 100 µM (inactive)	> 100 µM (inactive)	> 100 µM (inactive)	> 100 µM (inactive)	> 100 µM (inactive)	> 100 µM (inactive)	> 100 µM (inactive)	> 100 µM (inactive)	> 100 µM (inactive)	> 100 µM (inactive)	> 100 µM (inactive)	> 100 µM (inactive)	> 100 µM (inactive)	> 100 µM (inactive)
O=c1c2cccnc2cc(-c2ccccc2)n1CCO	> 100 µM (inactive)	–	> 100 µM (inactive)	> 100 µM (inactive)	> 100 µM (inactive)	> 100 µM (inactive)	> 100 µM (inactive)	> 100 µM (inactive)	> 100 µM (inactive)	> 100 µM (inactive)	> 100 µM (inactive)	> 100 µM (inactive)	> 100 µM (inactive)	> 100 µM (inactive)	> 100 µM (inactive)	> 100 µM (inactive)	> 100 µM (inactive)	> 100 µM (inactive)	> 100 µM (inactive)	> 100 µM (inactive)
CCC(C)C1NC(=O)C2CCCN2C(=O)C(CC2CO2)OC(=O)CCNC(=O)C(C)N(C)C(=O)C(C(C)C)N(C)C1=O (stereo not drawn)	> 100 µM (inactive)	0.993 µM (active)	2.14 µM (inactive)	0.0946 µM (active)	< 0.0208 µM (active)	0.0182 µM (active)	0.0267 µM (active)	> 22.9 µM (inactive)	1.57 µM (inactive)	–	–	0.889 µM (active)	0.968 µM (active)	> 100 µM (inactive)	> 13.4 µM (inactive)	< 0.024 µM (active)	> 14 µM (inactive)	7.31 µM (inactive)	–	0.176 µM (active)
Cc1nn(C(=O)Cc2ccccc2)c2c1C(c1ccc(Cl)cc1)SC(=N)N2 (stereo not drawn)	> 100 µM (inactive)	> 100 µM (inactive)	> 100 µM (inactive)	> 100 µM (inactive)	> 100 µM (inactive)	> 100 µM (inactive)	> 100 µM (inactive)	> 100 µM (inactive)	> 100 µM (inactive)	> 100 µM (inactive)	–	> 100 µM (inactive)	> 100 µM (inactive)	> 100 µM (inactive)	–	> 100 µM (inactive)	> 100 µM (inactive)	–	> 100 µM (inactive)	> 100 µM (inactive)
SC1=NC2=C(CSC/C2=C\c2ccccc2)C(c2ccccc2)N1 (stereo not drawn)	–	> 100 µM (inactive)	> 100 µM (inactive)	30.3 µM (inactive)	38.1 µM (inactive)	54.1 µM (inactive)	30.9 µM (inactive)	45.1 µM (inactive)	27.7 µM (inactive)	33 µM (inactive)	> 100 µM (inactive)	34.4 µM (inactive)	35.2 µM (inactive)	> 100 µM (inactive)	39.6 µM (inactive)	32.7 µM (inactive)	61.8 µM (inactive)	33.8 µM (inactive)	36.6 µM (inactive)	21.6 µM (inactive)
